Here are results for 25 compounds from patent publication US9896443B2, “Perforin inhibiting benzenesulfonamide compounds, preparation and uses thereof” (Peter MacCallum Cancer Institute, priority 2012, dated 2018).

Assay [1] relates to KHYG-1 NK cell-mediated lysis of K562 cells. The experiment in a line: Inhibition of KHYG-1 NK cell-mediated lysis of K562 cells (51Cr release). Type of assay: cell-based. Conditions: K562 target cells, Effector:Target 2:1, 4 hours at 37° C. On the procedure:
Inhibition of KHYG-1 NK Cell-Mediated Lysis of K562 Cells.
Test compounds were added to KHYG-1 cells at various concentrations up to 20 µM and incubated at RT for 20 minutes. 1×10^6 K562 target cells were labelled with 75 μCi ^51Cr in 200 μl RPMI for 90 mins at 37° C., cells were washed as described above and resuspended in 5 ml RPMI+0.1% BSA. 50 μl of ^51Cr labelled K562 leukemia target cells were added to each well of the KHYG-1 plate (Effector:Target 2:1) and incubated at 37° C. for 4 hours. ^51Cr release was assayed using a Skatron Harvesting Press and radioactivity estimated on a Wallac Wizard 1470 Automatic Gamma counter (Turku, Finland). The percentage of specific cytotoxicity was calculated by the formula: […]

A further assay deals with recombinant perforin (UniProt P10820). It counts as cell-based. On the procedure: Inhibition of perforin-mediated lysis of Jurkat cells.
recombinant perforin, sequence (P10820 whole entry): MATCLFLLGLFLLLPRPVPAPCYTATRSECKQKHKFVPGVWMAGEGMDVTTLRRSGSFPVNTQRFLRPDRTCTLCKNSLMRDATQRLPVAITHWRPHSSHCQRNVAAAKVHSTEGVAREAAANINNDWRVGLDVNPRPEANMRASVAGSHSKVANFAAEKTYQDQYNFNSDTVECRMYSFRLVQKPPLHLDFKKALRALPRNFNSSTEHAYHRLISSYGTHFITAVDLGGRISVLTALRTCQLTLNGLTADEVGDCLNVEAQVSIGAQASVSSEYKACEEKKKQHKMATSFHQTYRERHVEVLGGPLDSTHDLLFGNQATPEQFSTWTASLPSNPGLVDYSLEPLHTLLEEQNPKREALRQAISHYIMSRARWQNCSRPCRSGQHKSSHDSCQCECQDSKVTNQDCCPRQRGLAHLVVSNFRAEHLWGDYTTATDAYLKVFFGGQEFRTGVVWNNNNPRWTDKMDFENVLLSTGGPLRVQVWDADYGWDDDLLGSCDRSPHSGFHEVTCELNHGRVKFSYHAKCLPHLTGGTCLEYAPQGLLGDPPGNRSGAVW
The ability of the compounds to inhibit the lysis of nucleated (Jurkat T lymphoma) cells in the presence of 0.1% BSA, as measured by release of ^51Cr was measured. Jurkat target cells were labelled by incubation in medium with 100 μCi ^51Cr for one hour. The cells were then washed three times to remove unincorporated isotope and re-suspended at 1×10^5 cells per mL in RPMI buffer supplemented with 0.1% BSA. […] Each data point was performed in triplicate and an IC50 was calculated from the range of concentrations described to above.

[2] abbreviates: lysis of Jurkat T lymphoma cells by recombinant perforin, 0.1% BSA, 30 min pre-incubation, 4 hours at 37° C.; read-out: Jurkat IC50.
[3] abbreviates: read-out: Jurkat IC50; lysis of Jurkat T lymphoma cells by recombinant perforin, 0.1% BSA, 30 min pre-incubation, 4 hours at 37° C.

SMILES strings stand for the structures. Where two headings read alike, the source gives them in different places.

As for `CN1Cc2cc(-c3ccc(-c4cncc(NS(=O)(=O)c5ccc(F)cc5)c4)s3)ccc2C1=O` [Compound 6, 4-Fluoro-N-(5-(5-(2-methyl-1-oxoisoindolin-5-yl)thiophen-2-yl)pyridin-3-yl)benzene-sulfonamide], the inhibition at 20 µM in assay [1] (4 h) was 10%. In addition, the IC50 on recombinant perforin (setting [2]) came to 9.65 µM.
The like results for `CN1Cc2cc(-c3ccc(-c4cncc(NS(=O)(=O)c5c(F)cc(F)cc5F)c4)s3)ccc2C1=O` [Compound 8, 2,4,6-Trifluoro-N-(5-(5-(2-methyl-1-oxoisoindolin-5-yl)thiophen-2-yl)pyridin-3-yl)benzene-sulfonamide] were, in that order, 52% and 1.76 µM.
Regarding `CN1Cc2cc(-c3ccc(-c4cncc(NS(=O)(=O)c5ccc(Cl)cc5)c4)s3)ccc2C1=O` [Compound 11, 4-Chloro-N-(5-(5-(2-methyl-1-oxoisoindolin-5-yl)thiophen-2-yl)pyridin-3-yl)benzenesulfonamide], in assay [1], the inhibition at 20 µM was 17%. The IC50 at recombinant perforin (setting [2]) amounted to 5.39 µM.
`CN1Cc2cc(-c3ccc(-c4cncc(NS(=O)(=O)c5ccc(Cl)cc5)c4)s3)ccc2C1=O` [Compound 11.Na, 4-Chloro-N-(5-(5-(2-methyl-1-oxoisoindolin-5-yl)thiophen-2-yl)pyridin-3-yl)benzenesulfonamide] displayed an inhibition at 20 µM in assay [1] (4 h) of 14%. In addition, the IC50 at recombinant perforin (setting [2]) was 8.28 µM.
In turn, `CN1Cc2cc(-c3ccc(-c4cncc(NS(=O)(=O)c5ccccc5[N+](=O)[O-])c4)s3)ccc2C1=O` [Compound 28, N-(5-(5-(2-Methyl-1-oxoisoindolin-5-yl)thiophen-2-yl)pyridin-3-yl)-2-nitrobenzenesulfonamide] displayed an inhibition at 20 µM in assay [1] (4 h) of 71%. Moreover, on recombinant perforin (setting [2]), the IC50 stood at 6.65 µM.
The like results for `CN1Cc2cc(-c3ccc(-c4cncc(NS(=O)(=O)c5ccc([N+](=O)[O-])cc5)c4)s3)ccc2C1=O` [Compound 29, N-(5-(5-(2-Methyl-1-oxoisoindolin-5-yl)thiophen-2-yl)pyridin-3-yl)-4-nitrobenzenesulfonamide] were, in that order, 48% and 2.74 µM.
On to `CN1Cc2cc(-c3ccc(-c4cncc(NS(=O)(=O)c5ccc([N+](=O)[O-])cc5)c4)s3)ccc2C1=O` [Compound 29.Na, N-(5-(5-(2-Methyl-1-oxoisoindolin-5-yl)thiophen-2-yl)pyridin-3-yl)-4-nitrobenzenesulfonamide], for which, in assay [1], the “Inhibition of KHYG-1 at 20 μM (%)” value is reported as 49%. The IC50 on recombinant perforin (setting [2]) stood at 3.34 µM.
Turning to `CN1Cc2cc(-c3ccc(-c4cncc(NS(=O)(=O)c5ccc(C#N)cc5)c4)s3)ccc2C1=O` [Compound 30, 4-Cyano-N-(5-(5-(2-methyl-1-oxoisoindolin-5-yl)thiophen-2-yl)pyridin-3-yl)benzenesulfonamide], in assay [1] (4 h), 20 µM produced 49% inhibition. In addition, on recombinant perforin (setting [2]), the 50% inhibitory concentration (IC50) was determined as 5.17 µM.
The matching figures for `CN1Cc2cc(-c3ccc(-c4cnc(F)c(NS(=O)(=O)c5ccc(F)cc5F)c4)s3)ccc2C1=O` [Compound 39, 2,4-Difluoro-N-(2-fluoro-5-(5-(2-methyl-1-oxoisoindolin-5-yl)thiophen-2-yl)pyridin-3-yl)benzenesulphonamide]: 56% and 1.99 µM.
In the case of `CN1Cc2cc(-c3ccc(-c4cnc(F)c(NS(=O)(=O)c5ccc(F)cc5F)c4)s3)ccc2C1=O` [Compound 39.Na, 2,4-Difluoro-N-(2-fluoro-5-(5-(2-methyl-1-oxoisoindolin-5-yl)thiophen-2-yl)pyridin-3-yl)benzenesulphonamide], the “Inhibition of KHYG-1 at 20 μM (%)” value in assay [1] came to 48%. The IC50 on recombinant perforin (setting [2]) was 0.75 µM.
In assay [1] (4 h), `CN1Cc2cc(-c3ccc(-c4cnc(Cl)c(NS(=O)(=O)c5ccc(F)cc5F)c4)s3)ccc2C1=O` [Compound 40, 2,4-Difluoro-N-(2-chloro-5-(5-(2-methyl-1-oxoisoindolin-5-yl)thiophen-2-yl)pyridin-3-yl)benzenesulphonamide] displayed an inhibition at 20 µM of 85%. Also, the IC50 at recombinant perforin (setting [2]) is 1.03 µM.
The compound `O=C1NCc2ccc(-c3ccc(-c4cncc(NS(=O)(=O)c5ccc(F)cc5F)c4)s3)cc21` [Compound 49, 2,4-Difluoro-N-(5-(5-(3-oxoisoindolin-5-yl)thiophen-2-yl)pyridin-3-yl)benzenesulfonamide] yielded an inhibition at 20 µM in assay [1] (4 h) of 49%. In addition, at recombinant perforin (setting [3]), the IC50 came to 13.2 µM.
`CN1Cc2cc(-c3ccc(-c4cncc(NS(=O)(=O)c5ccccc5)c4)s3)ccc2C1=O` [Compound 62, N-(5-(5-(2-Methyl-1-oxoisoindolin-5-yl)thiophen-2-yl)pyridin-3-yl)benzenesulphonamide]: testing at 20 µM in assay [1] (4 h) gave an inhibition of 9.71 ± 2%. Moreover, at recombinant perforin (setting [2]), the IC50 came to 8.46 µM.
Turning to `CN1Cc2cc(-c3ccc(-c4ccc(OC(F)(F)F)c(NS(=O)(=O)c5ccccn5)c4)s3)ccc2C1=O` [Compound 63.Na, N-(5-(5-(2-Methyl-1-oxoisoindolin-5-yl)thiophen-2-yl)-2-(trifluoromethoxy)phenyl)pyridine-2-sulfonamide], in assay [1], the “Inhibition of KHYG-1 at 20 μM (%)” value was 77.07 ± 5%. Besides, the IC50 on recombinant perforin (setting [2]) came out at 19.6 µM.
For the compound `CN1C(=O)Cc2cc(-c3ccc(-c4cncc(NS(=O)(=O)c5ccc(F)cc5F)c4)s3)ccc21` [Compound 66, 2,4-Difluoro-N-(5-(5-(1-methyl-2-oxoindolin-5-yl)thiophen-2-yl)pyridin-3-yl)benzenesulfonamides], at 20 µM the inhibition in assay [1] (4 h) was 34.3 ± 9%. In addition, the IC50 at recombinant perforin (setting [3]) was determined as 10.2 µM.
The matching figures for `O=C1Cc2cc(-c3ccc(-c4cncc(NS(=O)(=O)c5ccc(F)cc5F)c4)s3)ccc2N1` [Compound 67, 2,4-Difluoro-N-(5-(5-(2-oxoindolin-5-yl)thiophen-2-yl)pyridin-3-yl)benzenesulfonamides]: 42.8 ± 10% and 5.04 µM.
In turn, `Cc1cc(F)ccc1S(=O)(=O)Nc1cncc(-c2ccc(-c3ccc4c(c3)CN(C)C4=O)s2)c1` [Compound 70, 4-Fluoro-2-methyl-N-(5-(5-(2-methyl-1-oxoisoindolin-5-yl)thiophen-2-yl)pyridin-3-yl)benzenesulphonamide] returned an inhibition at 20 µM in assay [1] (4 h) of 17.6 ± 13%. The IC50 at recombinant perforin (setting [2]) was 5.53 µM.
`Cn1ccc2cc(-c3ccc(-c4cncc(NS(=O)(=O)c5ccc(F)cc5F)c4)s3)ccc21` [Compound 72, 2,4-Difluoro-N-(5-(5-(1-methyl-1H-indol-5-yl)thiophen-2-yl)pyridin-3-yl)benzenesulfonamide]: the inhibition at 20 µM in assay [1] (4 h) is 19 ± 17%. Moreover, the IC50 on recombinant perforin (setting [3]) came to 8.63 µM.
`CN1Cc2cc(-c3ccc(-c4cncc(NS(=O)(=O)c5ccc(C(=O)O)cc5)c4)s3)ccc2C1=O` [Compound 73, 4-(N-(5-(5-(2-Methyl-1-oxoisoindolin-5-yl)thiophen-2-yl)pyridin-3-yl)sulfamoyl)benzoic acid] registered an inhibition at 20 µM in assay [1] (4 h) of 56.9 ± 29.6%. Moreover, on recombinant perforin (setting [2]), the IC50 was 0.75 µM.
For `CN1Cc2cc(-c3ccc(-c4cncc(NS(=O)(=O)c5ccc(I)cc5)c4)s3)ccc2C1=O` [Compound 74, 4-Iodo-N-(5-(5-(2-methyl-1-oxoisoindolin-5-yl)thiophen-2-yl)pyridin-3-yl)benzenesulfonamides], testing at 20 µM in assay [1] (4 h) gave an inhibition of 15.6 ± 5%. In addition, the IC50 on recombinant perforin (setting [2]) came to 5 µM.
The like results for `CN1Cc2cc(-c3ccc(-c4cncc(NS(=O)(=O)c5ccc(Br)cc5Br)c4)s3)ccc2C1=O` [Compound 75, 2,4-Dibromo-N-(5-(5-(2-methyl-1-oxoisoindolin-5-yl)thiophen-2-yl)pyridin-3-yl)benzenesulfonamides] were, in that order, 49.2 ± 15% and 2.52 µM.
The matching figures for `CN1Cc2cc(-c3ccc(-c4cncc(NS(=O)(=O)c5ccc(-c6ccno6)s5)c4)s3)ccc2C1=O` [Compound 76, 5-(Isoxazol-5-yl)-N-(5-(5-(2-methyl-1-oxoisoindolin-5-yl)thiophen-2-yl)pyridin-3-yl)thiophene-2-sulfonamide]: 47.5 ± 10% and 7.1 µM.
`CN1Cc2cc(-c3ccc(-c4cncc(NS(=O)(=O)c5ccc(-c6cnco6)cc5)c4)s3)ccc2C1=O` [Compound 77, N-(5-(5-(2-Methyl-1-oxoisoindolin-5-yl)thiophen-2-yl)pyridin-3-yl)-4-(oxazol-5-yl)benzenesulfonamides] returned an inhibition at 20 µM in assay [1] (4 h) of 38.3 ± 5%. Further, at recombinant perforin (setting [2]), the IC50 turned out to be 3.05 µM.
On to `CN1Cc2cc(-c3ccc(-c4cncc(NS(=O)(=O)c5ccccc5C(F)(F)F)c4)s3)ccc2C1=O` [Compound 78, N-(5-(5-(2-Methyl-1-oxoisoindolin-5-yl)thiophen-2-yl)pyridin-3-yl)-2-(trifluoromethyl)benzenesulfonamide], for which at 20 µM the inhibition in assay [1] (4 h) was 56 ± 9%. Further, the IC50 on recombinant perforin (setting [2]) was found to be 1.45 µM.
The matching figures for `CN1Cc2cc(-c3ccc(-c4cncc(NS(=O)(=O)c5cccc(C(F)(F)F)c5)c4)s3)ccc2C1=O` [Compound 81, N-(5-(5-(2-Methyl-1-oxoisoindolin-5-yl)thiophen-2-yl)pyridin-3-yl)-3-(trifluoromethyl)benzenesulfonamides]: 37.8 ± 19% and 0.91 µM.
